In article PMC9573605, “Exploring Nitric Oxide (NO)-Releasing Celecoxib Derivatives as Modulators of Radioresponse in Pheochromocytoma Cells” (Molecules, 2022):

Legend:
[1] = set-up: method as in PMID 25547413; settings: cited from earlier work
MPC-HIF2a spheroids = experiment: Growth of non-irradiated tumor spheroids; assay type: cell-based, mouse; settings: 10 µM compound, linear regression between 0 and 9 days
Procedure: (§1) As a first pilot study, growth responses of MPC-HIF2α spheroids were investigated after two different radiation treatments such as single-dose external beam irradiation (X-ray) and incubation with [^177Lu]LuCl3, respectively. NO-COXIBs were tested at 10 µM for additional effects on radiation treatments against a vehicle-treated control (w/o) and celecoxib (Ce).
4. Growth-rate of tumor spheroids in the presence of NO -COXIBS without radiation treatment
Compound Diameter growth rate
Table S2. Effects of NO-COXIBs on spheroid growth; diameter growth rates of non-irradiated MPC-HIF2a spheroids in presence of 10 µM of compounds determined from linear regression between 0 and 9 days after treatment start; (w/o) vehicle control treated with DMSO

[2] = tested on: MPC-HIF2α tumor spheroids; experiment: Spheroid regrowth assay with [177Lu]LuCl3 treatment; assay type: cell-based, mouse; settings: 10 µM compound with 0.25 MBq [177Lu]LuCl3 for six days; for 14-day regrowth probability: controls 50%
From the text: Radionuclide therapy is a fast-evolving treatment modality gaining more importance in treating cancer. For treatment of pheochromocytomas and paragangliomas, in particular, somatostatin type 2 receptor-targeted radionuclide therapy with [^177Lu]Lu-(Tyr^3)octreotate is currently investigated in clinical controlled trials (e.g., NCT04029428, NCT03923257, NCT03206060). To assess the additional effects of NO-COXIBs on the outcome of Lu-177 therapy, a simplified in vitro setup was used here, where MPC-HIF2α tumor spheroids were treated with 10 µM of the compounds and simultaneously 0.25 MBq of [^177Lu]LuCl3 for six days.
(§2) Genetically modified mouse pheochromocytoma (MPC) cells expressing a codon-optimized Epas1 gene (encoding HIF2α) were cultured as three-dimensional tumor spheroids as published elsewhere. External X-ray beam radiation treatment and [^177Lu]LuCl3 radionuclide treatment was performed as reported previously with some modifications. In brief, spheroids were irradiated with a 200 kV photon beam using a Maxishot X-ray system equipped with a Y.TU/320-D03 tube (YXLON, Hamburg, Germany), growth of spheroids (n = 6) with diameters between 300−400 µm was measured in response to one fixed radiation dose, 15 Gy for X-ray treatment, and 0.25 MBq/mL of [^177Lu]LuCl3 for radionuclide treatment corresponding to a cumulative dose of approximately 2 Gy delivered for 6 days. The applied radiation doses were selected based on the half-maximal spheroid control doses (SCD50) as previously determined for MPC HIF2α spheroids by us. Spheroids were considered as regrown at 100 µm increase in diameter compared to treatment start or at a diameter growth rate of 15 µm per day. Results are reported as spheroid regrowth probability (%).
(§3) Figure 5 Effects of NO-COXIBs on radiation treatments of MPC-HIF2α tumor spheroids. (A) Growth responses to X-ray treatment with a radiation dose of 15 Gy in combination with 10 µM NO-COXIBs added to the medium at indicated time points before or after irradiation. (B) Growth responses to [^177Lu]LuCl3 treatment with an initial activity concentration of 0.25 MBq/mL in combination with NO-COXIBs; log2 fold changes in diameter indicate the number of diameter doublings compared to treatment start; 14-day regrowth probability indicates the fraction of spheroids able to regrow within 14 days after treatment start; (black arrows) time point or duration of radiation treatment; (w/o) vehicle controls are shown as black lines; (Ce) celecoxib.

[3] = tested on: MPC-HIF2α tumor spheroids; experiment: Spheroid regrowth assay with external X-ray irradiation; assay type: cell-based, mouse; settings: X-ray 15 Gy; 10 µM compound added 2 h post irradiation; controls 83%
Procedure: as §1
The log2-fold change in spheroid diameter is given as a standardized parameter for spheroid growth, which is positive for growing, near zero for stagnating and negative for shrinking spheroids. Furthermore, regrowth probabilities are given as a parameter to compare how many of the overall studied spheroids in one group recovered within 14 days. Radioprotective effects occurred when compounds were added 2 h before irradiation. In this setup, all compounds accelerated the increase in spheroid size during the regrowth phase compared to controls (Figure 5A, upper panel). Regrowth probabilities of 67–100% under NO-COXIB treatment remained however similar to controls (83%). Radiosensitizing effects occurred when compounds were added 2 h post irradiation. In this setup, all compounds decelerated the increase in spheroid size during the regrowth phase compared to controls.
as §2, §3

Mel-Juso cells = tested on: Mel-Juso cells; set-up: method as in PMID 26081289; settings: 10 µM, DMSO control 4.2 Gy; cited from earlier work
[4] = Lipophilicity logD7.4 by HPLC method; assay type: physicochemical; settings: HPLC retention on ODP-50 4B column (Shodex Asahipak), phosphate buffer pH 7.4
Procedure: The lipophilicity of all synthesized compounds was determined as logD7.4, HPLC value by an HPLC method originally described by Donovan and Pescatore.
The logD7.4HPLC value was determined as previously reported by us utilizing an HPLC method originally described by Donovan and Pescatore.

A2058 cells = tested on: A2058 cells; set-up: method as in PMID 26081289; settings: 10 µM, DMSO control 6.6 Gy; cited from earlier work
[5] = Fluorometric NO release assay (Griess assay); assay type: physicochemical; settings: 24 h, 37 °C, relative to initial molar amount of compound
Procedure: The nitric oxide releasing properties of the nitroester-derivatives 5a–d, 5f, and 6a–d were evaluated using a fluorometric Griess assay in the presence and absence of cysteine to determine thiol-dependent and spontaneous release of nitric oxide (Figure 3).
Nitric oxide release of compounds within 24 h at 37 °C was measured using the fluorometric nitric oxide microplate assay kit ab65327 (Abcam, Cambridge, UK). For measurement of spontaneous release, 1.8 nmol of compounds were incubated in 75 µL Dulbecco’s PBS containing 0.05% v/v residual DMSO and 2.5 mM DTPA (pH = 7.1) for 24 h at 37 °C. Thiol-dependent release was measured accordingly in presence of 2.5 mM cysteine. Two series of nitrate standards were prepared (0.2−1 nmol) in 75 µL incubation buffer, in presence or absence of cysteine, respectively. According to the manufacturer’s instructions, all nitrate content in samples and standards was enzymatically converted into nitrite through incubation with nitrate reductase for 2 h at room temperature, and the resulting nitrite content (total nitric oxide) was determined through reaction with 2,3-diaminonaphthalene followed by measurement of fluorescence intensity at λex/em = 360/450 nm using a microplate reader. Nitrite content in samples was calculated from linear regression of standards and expressed as relative nitric oxide release (%) normalized to the initial molar amount of compound. NONOate served as positive control.
Figure 3 Spontaneous and thiol-dependent NO^• release from NO-COXIBs; measured using fluorometric Griess assay (n = 2); relative release indicates the percentage of soluble nitrogen species (nitrate + nitrite) detected in the incubation buffer after 24 h compared to the initial molar amount of compounds; NO^• release of NONOate (positive control) exceeded the maximum detection limit; data presented as mean ± range.

chromatographic logD [4] | thiol-dependent NO release ([5]; 2.5 mM cysteine) | spontaneous NO release ([5]; absence of cysteine) | Compound | scavenging effects on OH•, O2•−, and OCl- [1] | Diameter growth rate ± SEM (MPC-HIF2a spheroids) [µm/day] | 14-day regrowth probability [2] | 14-day regrowth probability [3] [%] | required radiation dose for 10% survival (Mel-Juso cells) [Gy] | growth response (spheroid size) ([2]; compared to controls) | required radiation dose for 10% survival (A2058 cells) [Gy]
 |  |  | Cc1ccc(-c2cc(C(F)(F)F)nn2-c2ccc(S(N)(=O)=O)cc2)cc1 [celecoxib] | did not show any scavenging effects | 57.3 ± 4.0 | 40% | 0 |  |  | 
3.76 | 29–53% | 10–22% | Cc1ccc(-c2c(Cl)c(CO[N+](=O)[O-])nn2-c2ccc(S(N)(=O)=O)cc2)cc1 [5a, [4-Chloro-1-(4-sulfamoylphenyl)-5-(p-tolyl)-1H-pyrazol-3-yl]methyl nitrate] |  | 54.1 ± 5.2 | 60–80% | 17 | 3.2 | prevented spheroids from shrinking in size | 5.2
